The source of these data is patent publication US12252524B2, “GIP/GLP1 co-agonist compounds” (Eli Lilly and Company, priority 2018, dated 2025).

Numbered stars: 1 amine (or outer) side, 2 acyl side, 3 side chain; on linkers, the order of the positions; unused ones are H or OH. Square brackets hold non-standard residues; d marks the D form. Side chains are listed from the residue outwards. Peptide text beside a SMILES is read from it. * marks the point of attachment. C20 diacid = O=C(O)CCCCCCCCCCCCCCCCCCC(=O)*; γGlu = O=C(O)[C@H](CCC(=O)[*:2])N[*:1]; AEEA = NCCOCCOCC(=O)O; Aib = CC(C)(N)C(=O)O

Test [1] addresses T1, human GIP receptor (Homo sapiens, UniProt P48546).
T1 construct: expressed in transfected cells; crude membranes
T1 sequence (P48546 22-466): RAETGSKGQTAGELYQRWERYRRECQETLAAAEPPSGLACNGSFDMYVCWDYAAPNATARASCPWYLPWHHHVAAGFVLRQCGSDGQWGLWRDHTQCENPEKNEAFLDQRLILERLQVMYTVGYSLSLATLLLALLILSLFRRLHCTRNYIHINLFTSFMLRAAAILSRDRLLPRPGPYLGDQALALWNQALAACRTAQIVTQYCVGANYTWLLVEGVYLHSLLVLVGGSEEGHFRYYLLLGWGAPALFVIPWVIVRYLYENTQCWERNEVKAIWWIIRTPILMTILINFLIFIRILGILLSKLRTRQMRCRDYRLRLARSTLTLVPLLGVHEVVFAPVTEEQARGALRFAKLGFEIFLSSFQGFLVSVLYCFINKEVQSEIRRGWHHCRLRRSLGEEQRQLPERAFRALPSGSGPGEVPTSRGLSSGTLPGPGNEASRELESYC
Briefly: [125I]-GIP binding (SPA), human GIP receptor. The conditions noted are these: read-out: hGIPR Ki, nM (SEM, n).

Test [2] has as its target T2, gastric inhibitory peptide receptor (GIPR) (Homo sapiens, UniProt P48546).
T2 sequence (P48546 22-466): T1 sequence (P48546 22-466)
The test can be described thus: cAMP pharmacological functional assay in presence of casein, hGIPR. The conditions noted are these: HEK293 cells expressing hGIPR, 0.1% Casein, geometric mean; read-out: hGIPR cAMP Rel EC50 nM (SEM, n). It counts as cell-based.

Test [3] addresses human GLP-1 receptor (GLP-1R) (Homo sapiens, UniProt P43220). Briefly: cAMP pharmacological functional assay in presence of casein, hGLP-1R. It counts as cell-based. As to conditions: HEK293 cells expressing hGLP-1R, 0.1% Casein, geometric mean; read-out: hGLP1R cAMP Rel EC50 nM (SEM, n).
In test [4] the target is T3, human Gcg receptor (Homo sapiens, UniProt P47871).
T3 construct: expressed in transfected cells; crude membranes
The test can be described thus: [125I]-Glucagon binding (SPA), human Gcg receptor. The conditions noted are these: read-out: hGLcgR Ki, nM (SEM, n). Put shortly:
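Crude membranes from cells expressing the receptor, prepared by hypotonic lysis in 50 mM Tris HCl pH 7.5 with protease inhibitors, homogenization and differential centrifugation, were used in a WGA-bead SPA. Binding buffer: 25 mM HEPES pH 7.4, 2.5 mM CaCl2, 1 mM MgCl2, bacitracin, Tween-20.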

Test [5] has as its target human GLP-1R (Homo sapiens, UniProt P43220). Briefly: [125I]-GLP-1 binding (SPA), human GLP-1 receptor. Also noted: expressed in transfected cells; crude membranes. The conditions noted are these: read-out: hGLP1R Ki, (nM) (SEM, n). Put shortly: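 Ki values are geometric means with SEM over independent replicates on different days, derived from IC50s fitted by four-parameter nonlinear regression. The assay used crude cell membranes in HEPES buffer, pH 7.4, containing CaCl2, MgCl2, bacitracin and TWEEN-20.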

T3 sequence (P47871 26-477): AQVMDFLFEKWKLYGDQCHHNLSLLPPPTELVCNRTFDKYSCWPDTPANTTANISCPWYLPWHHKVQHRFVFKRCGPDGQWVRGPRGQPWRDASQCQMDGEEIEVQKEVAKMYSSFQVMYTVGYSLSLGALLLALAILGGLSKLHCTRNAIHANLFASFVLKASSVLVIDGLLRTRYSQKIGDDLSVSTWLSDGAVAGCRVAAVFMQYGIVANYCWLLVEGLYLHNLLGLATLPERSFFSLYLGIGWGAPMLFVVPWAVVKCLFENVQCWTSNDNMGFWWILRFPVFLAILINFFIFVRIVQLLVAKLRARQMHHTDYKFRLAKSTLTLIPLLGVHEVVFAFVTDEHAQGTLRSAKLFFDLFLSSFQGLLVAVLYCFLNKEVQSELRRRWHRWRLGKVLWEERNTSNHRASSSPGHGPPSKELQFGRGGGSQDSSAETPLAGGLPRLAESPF
Sequence of human GLP-1 receptor (GLP-1R) (P43220 24-463): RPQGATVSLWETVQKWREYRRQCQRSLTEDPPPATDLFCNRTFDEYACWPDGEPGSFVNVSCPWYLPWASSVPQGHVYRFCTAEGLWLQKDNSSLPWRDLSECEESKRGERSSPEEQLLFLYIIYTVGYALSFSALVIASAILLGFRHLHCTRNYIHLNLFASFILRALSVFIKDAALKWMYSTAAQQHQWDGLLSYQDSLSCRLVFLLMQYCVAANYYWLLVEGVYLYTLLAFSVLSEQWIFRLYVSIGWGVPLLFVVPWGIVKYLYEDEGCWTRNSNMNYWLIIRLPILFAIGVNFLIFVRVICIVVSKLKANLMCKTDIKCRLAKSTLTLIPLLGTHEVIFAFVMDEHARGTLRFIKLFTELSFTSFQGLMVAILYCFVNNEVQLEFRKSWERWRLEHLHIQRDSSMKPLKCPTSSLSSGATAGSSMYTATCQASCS
Sequence of human GLP-1R (P43220 24-463): as above

The term Ki denotes a measure of affinity in units of concentration, obtained from inhibition or displacement. Broadly, the EC50 is the concentration at which the effect is half-maximal. Take `CC[C@H](C)[C@H](NC(=O)[C@H](CC(C)C)NC(=O)[C@H](Cc1ccc(O)cc1)NC(=O)[C@H](CCC(=O)O)NC(=O)[C@@H](NC(=O)[C@H](Cc1ccccc1)NC(=O)[C@H](C)NC(=O)C(C)(C)NC(=O)[C@H](CCC(N)=O)NC(=O)[C@H](C)NC(=O)[C@H](CCCCNC(=O)COCCOCCNC(=O)COCCOCCNC(=O)CC[C@H](NC(=O)CCCCCCCCCCCCCCCCCCC(=O)O)C(=O)O)NC(=O)[C@H](CCCCN)NC(=O)[C@H](CC(=O)O)NC(=O)[C@H](CC(C)C)NC(=O)[C@H](CC(C)C)NC(=O)[C@@H](NC(=O)[C@@H](CO)NC(=O)[C@H](Cc1ccc(O)cc1)NC(=O)[C@H](CC(=O)O)NC(=O)[C@H](CO)NC(=O)[C@@H](NC(=O)[C@H](Cc1ccccc1)NC(=O)[C@@H](NC(=O)CNC(=O)[C@H](CCC(=O)O)NC(=O)C(C)(C)NC(=O)[C@@H](N)Cc1ccc(O)cc1)[C@@H](C)O)[C@@H](C)O)[C@@H](C)CC)[C@@H](C)CC)C(=O)N[C@@H](CCC(=O)O)C(=O)NCC(=O)NCC(=O)N1CCC[C@H]1C(=O)N[C@@H](CO)C(=O)N[C@@H](CO)C(=O)NCC(=O)N[C@@H](C)C(=O)N1CCC[C@H]1C(=O)N1CCC[C@H]1C(=O)N1CCC[C@H]1C(=O)N[C@@H](CO)C(N)=O` [Example 81]: the Ki stood at 0.198 nM in test [1], 344 nM in test [4] and 2.88 nM in test [5]. Also, the EC50 in test [2] came to 0.428 nM; in test [3] it was 1.29 nM.

For the compound `CC[C@@H](C)[C@@H](NC(=O)[C@H](CO)NC(=O)[C@H](Cc1ccc(O)cc1)NC(=O)[C@H](CC(=O)O)NC(=O)[C@H](CO)NC(=O)[C@@H](NC(=O)[C@H](Cc1ccccc1)NC(=O)[C@@H](NC(=O)CNC(=O)[C@H](CCC(=O)O)NC(=O)C(C)(C)NC(=O)[C@@H](N)Cc1ccc(O)cc1)[C@@H](C)O)[C@@H](C)O)C(=O)N[C@@H](CC(C)C)C(=O)N[C@@H](CC(C)C)C(=O)N[C@@H](CC(=O)O)C(=O)N[C@@H](CCCCN)C(=O)N[C@@H](CCCCNC(=O)COCCOCCNC(=O)COCCOCCNC(=O)CC[C@H](NC(=O)CCCCCCCCCCCCCCCCCCC(=O)O)C(=O)O)C(=O)N[C@@H](C)C(=O)N[C@@H](CCC(N)=O)C(=O)NC(C)(C)C(=O)N[C@@H](C)C(=O)N[C@@H](Cc1ccccc1)C(=O)N[C@H](C(=O)N[C@@H](CCC(=O)O)C(=O)N[C@@H](Cc1ccc(O)cc1)C(=O)N[C@@H](CC(C)C)C(=O)N[C@H](C(=O)N[C@@H](CCC(=O)O)C(=O)NCC(=O)NCC(=O)N1CCC[C@H]1C(=O)N[C@@H](CO)C(=O)N[C@@H](CO)C(=O)NCC(=O)N[C@@H](C)C(=O)N1CCC[C@H]1C(=O)N1CCC[C@H]1C(=O)N1CCC[C@H]1C(=O)N[C@@H](CO)C(N)=O)[C@@H](C)CC)[C@@H](C)CC` [Example 82], the inhibition constant Ki in test [1] is 14.9 nM; in test [4], more than 1060 nM; in test [5], 6.82 nM. Further, the EC50 was 24.3 nM in test [2] and 26.1 nM in test [3].

For `CC[C@H](C)[C@H](NC(=O)[C@H](Cc1ccccc1)NC(=O)[C@H](C)NC(=O)C(C)(C)NC(=O)[C@H](CCC(N)=O)NC(=O)[C@H](C)NC(=O)[C@H](CCCCNC(=O)COCCOCCNC(=O)COCCOCCNC(=O)CC[C@H](NC(=O)CCCCCCCCCCCCCCCCCCC(=O)O)C(=O)O)NC(=O)[C@H](CCCCN)NC(=O)[C@H](CC(=O)O)NC(=O)[C@H](CC(C)C)NC(=O)[C@H](CC(C)C)NC(=O)[C@@H](NC(=O)[C@H](CO)NC(=O)[C@H](Cc1ccc(O)cc1)NC(=O)[C@H](CC(=O)O)NC(=O)[C@H](CO)NC(=O)[C@@H](NC(=O)[C@H](Cc1ccccc1)NC(=O)[C@@H](NC(=O)CNC(=O)[C@H](CCC(=O)O)NC(=O)C(C)(C)NC(=O)[C@@H](N)Cc1ccc(O)cc1)[C@@H](C)O)[C@@H](C)O)[C@@H](C)CC)C(=O)N[C@@H](CCC(=O)O)C(=O)N[C@@H](Cc1ccc(O)cc1)C(=O)N[C@@H](CC(C)C)C(=O)N[C@H](C(=O)N[C@H](CCC(=O)O)C(=O)NCC(=O)NCC(=O)N1CCC[C@H]1C(=O)N[C@@H](CO)C(=O)N[C@@H](CO)C(=O)NCC(=O)N[C@@H](C)C(=O)N1CCC[C@H]1C(=O)N1CCC[C@H]1C(=O)N1CCC[C@H]1C(=O)N[C@@H](CO)C(N)=O)[C@@H](C)CC` [Example 83], the Ki was found to be 0.142 nM in test [1], 320 nM in test [4] and 7.1 nM in test [5]. Further, the EC50 amounted to 0.182 nM in test [2] and 0.387 nM in test [3].

Regarding `CC[C@H](C)[C@H](NC(=O)[C@H](CC(C)C)NC(=O)[C@H](Cc1ccc(O)cc1)NC(=O)[C@@H](CCC(=O)O)NC(=O)[C@@H](NC(=O)[C@H](Cc1ccccc1)NC(=O)[C@H](C)NC(=O)C(C)(C)NC(=O)[C@H](CCC(N)=O)NC(=O)[C@H](C)NC(=O)[C@H](CCCCNC(=O)COCCOCCNC(=O)COCCOCCNC(=O)CC[C@H](NC(=O)CCCCCCCCCCCCCCCCCCC(=O)O)C(=O)O)NC(=O)[C@H](CCCCN)NC(=O)[C@H](CC(=O)O)NC(=O)[C@H](CC(C)C)NC(=O)[C@H](CC(C)C)NC(=O)[C@@H](NC(=O)[C@H](CO)NC(=O)[C@H](Cc1ccc(O)cc1)NC(=O)[C@H](CC(=O)O)NC(=O)[C@H](CO)NC(=O)[C@@H](NC(=O)[C@H](Cc1ccccc1)NC(=O)[C@@H](NC(=O)CNC(=O)[C@H](CCC(=O)O)NC(=O)C(C)(C)NC(=O)[C@@H](N)Cc1ccc(O)cc1)[C@@H](C)O)[C@@H](C)O)[C@@H](C)CC)[C@@H](C)CC)C(=O)N[C@@H](CCC(=O)O)C(=O)NCC(=O)NCC(=O)N1CCC[C@H]1C(=O)N[C@@H](CO)C(=O)N[C@@H](CO)C(=O)NCC(=O)N[C@@H](C)C(=O)N1CCC[C@H]1C(=O)N1CCC[C@H]1C(=O)N1CCC[C@H]1C(=O)N[C@@H](CO)C(N)=O` [Example 84], the inhibition constant (Ki) in test [1] is 0.143 nM; in test [4] it was more than 1100 nM; in test [5], 10.2 nM. Moreover, the EC50 in test [2] was 0.0915 nM; in test [3], 0.374 nM.

Regarding `CC[C@H](C)[C@H](NC(=O)[C@H](CC(C)C)NC(=O)[C@H](Cc1ccc(O)cc1)NC(=O)[C@H](CCC(=O)O)NC(=O)[C@@H](NC(=O)[C@H](Cc1ccccc1)NC(=O)[C@H](C)NC(=O)C(C)(C)NC(=O)[C@H](CCC(N)=O)NC(=O)[C@H](C)NC(=O)[C@H](CCCCNC(=O)COCCOCCNC(=O)COCCOCCNC(=O)CC[C@H](NC(=O)CCCCCCCCCCCCCCCCCCC(=O)O)C(=O)O)NC(=O)[C@H](CCCCN)NC(=O)[C@H](CC(=O)O)NC(=O)[C@H](CC(C)C)NC(=O)[C@H](CC(C)C)NC(=O)[C@@H](NC(=O)[C@H](CO)NC(=O)[C@H](C)NC(=O)[C@H](CC(=O)O)NC(=O)[C@H](CO)NC(=O)[C@@H](NC(=O)[C@H](Cc1ccccc1)NC(=O)[C@@H](NC(=O)CNC(=O)[C@H](CCC(=O)O)NC(=O)C(C)(C)NC(=O)[C@@H](N)Cc1ccc(O)cc1)[C@@H](C)O)[C@@H](C)O)[C@@H](C)CC)[C@@H](C)CC)C(=O)N[C@@H](CCC(=O)O)C(=O)NCC(=O)NCC(=O)N1CCC[C@H]1C(=O)N[C@@H](CO)C(=O)N[C@@H](CO)C(=O)NCC(=O)N[C@@H](C)C(=O)N1CCC[C@H]1C(=O)N1CCC[C@H]1C(=O)N1CCC[C@H]1C(=O)N[C@@H](CO)C(N)=O` [Example 85] (H-Y[Aib]EGTFTSDASILLDKK([AEEA-AEEA-γGlu-C20 diacid])AQ[Aib]AFIEYLIEGGPSSGAPPPS-NH2), the Ki in test [1] is 0.621 nM; in test [4], more than 894 nM; in test [5] it was 1.87 nM. Also, the EC50 was determined as 1.67 nM in test [2] and 0.0518 nM in test [3].
